The values below are quoted from earlier work in article PMC8886800 (Journal of the American Chemical Society, 2021).

Data set [1] concerns angiogenesis.
Data set [2] deals with VEGFR.

Regarding Ac-KLTWMELY QLAYKGI [MA], in data set [1], the “effect on angiogenesis (reported)” value is “capable of inhibiting angiogenesis”. The “binding to VEGF receptors (reported)” value in data set [2] is given as “demonstrated binding to VEGF receptors”.
